We go through four compounds from patent publication US4745117A, “Imide derivatives and compositions for use as antipsychotic agents” (Sumitomo Pharmaceuticals Company, Limited, priority 1985, dated 1988).

Data set [1] relates to climbing behavior induced by apomorphine. The data set is described as follows: Neuroleptic activity: anti-climbing behavior test (suppression of climbing behavior induced by apomorphine). The class given is in vivo, mice (dd strain male). The following applies: for ED50: Mus musculus, read-out: ED50 (50% effective dose), anti-climbing.
Data set [2] can be described thus: Extrapyramidal activity: catalepsy inducing activity test. More on the design: species or system mice (dd strain male). The settings on record: mouse, in vivo. As to the method: (§1) (2) Extrapyramidal activity
(§2) This activity was examined through the catalepsy inducing activity test as described in M. Fujiwara et al.: Folia Formacol., Japon: 85, 259-274 (1985). A designated amount of the test compound was orally administered to dd strain male mice (bodyweight, 22 to 27 g), and 1 and 4 hours after the administration, catalepsy induction was checked according to the Wirth et al method. Thus, each of the animals was forced to hang the forepows onto a metal pole of 2.5 mm in diameter horizontally situated at a height of 5 cm to maintain a strained state. The test was made with three replications, and the presence of at least one case where the animal was kept in the strained state over a period of 30 seconds was deemed to have caused catalepsy.

In the next data set the test system is catalepsy. Described as above. The following applies: mouse, in vivo. More on the design: species or system mice (dd strain male). The procedure:
as §1, §2

The mark [3] stands for this setting: 50 min, Oral administration, apomorphine 1.0 mg/kg s.c. after 50 minutes, mice.
[4] abbreviates: sc, Subcutaneous administration, apomorphine 1.0 mg/kg s.c., mice.

Molecules are shown by their SMILES. Like-named read-outs stand apart in the source and are kept apart here.

On to `O=C1[C@@H]2[C@H]3CC[C@H](C3)[C@@H]2C(=O)N1CCCCN1CCN(c2nsc3ccccc23)CC1` [Compound No. 1, N-[4-{4-(1,2-Benzisothiazol-3-yl)-1-piperazinyl}butyl]bicyclo[2.2.1]heptane-2,3-di-exo-carboximide], for which the results for the ED50 in data set [1] (setting [3]) and in data set [1] (setting [4]) were 2 mg/kg and 0.15 mg/kg, respectively. In data set [2] (po), this compound returned a TD50 of 68.1 mg/kg.

As for `O=C1[C@@H]2[C@@H]3CC[C@@H](C3)[C@@H]2C(=O)N1CCCCN1CCN(c2nsc3ccccc23)CC1` [Compound No. 5, N--[4-{4-(1,2-Benzisothiazol-3-yl)-1-piperazinyl}butyl]bicyclo[2.2.1]heptane-2,3-di-endo-carboximide], the ED50 turned out to be 2.6 mg/kg in data set [1] (setting [3]) and 0.13 mg/kg in data set [1] (setting [4]). For the same compound, the TD50 in data set [2] (po) came out at 112 mg/kg.

On to `O=C(CCCN1CCC(O)(c2ccc(Cl)cc2)CC1)c1ccc(F)cc1` [Haloperidol, 4-[4-(4-chlorophenyl)-4-hydroxy-1-piperidinyl]-1-(4-fluorophenyl)-1-butanone], for which, in data set [1] (sc), the ED50 was found to be 0.21 mg/kg. In addition, the “neuroleptic activity (anti-climbing activity), in words” value in data set [1] (route not stated) is reported as “significant neuroleptic activity”. The TD50 in data set [2] (oral administration, checked 1 and 4 hours after administration, mice, read-out: ED50, catalepsy induction) was less than 5 mg/kg. Further, the “extrapyramidal activity (catalepsy inducing activity), in words” value with catalepsy is reported as “considerably high level of extra-pyramidal activity”.

For `O=C1CC2(CCCC2)CC(=O)N1CCCCN1CCN(c2nsc3ccccc23)CC1` [Tiaspiron, 8-[4-(3-benzisothiazolyl)-1-piperazinylbutyl]-8-azaspiro[4,5]decane-7,9-dione], the ED50 was more than 10 mg/kg in data set [1] (setting [3]) and 0.23 mg/kg in data set [1] (setting [4]).
